Among the data in patent US20090118274A1, “MONOCYCLIC AMINOPROPYL TETRAHYDRO-PYRAZOLO-PYRIDINE MODULATORS OF CATHEPSIN S” (priority 2007, published 2009) are IC50 values, retold here.

For one experiment, the target named is T1, Recombinant human cathepsin S (CatS) (Homo sapiens, UniProt P25774).
T1 construct: made in house
T1 sequence (P25774 115-331): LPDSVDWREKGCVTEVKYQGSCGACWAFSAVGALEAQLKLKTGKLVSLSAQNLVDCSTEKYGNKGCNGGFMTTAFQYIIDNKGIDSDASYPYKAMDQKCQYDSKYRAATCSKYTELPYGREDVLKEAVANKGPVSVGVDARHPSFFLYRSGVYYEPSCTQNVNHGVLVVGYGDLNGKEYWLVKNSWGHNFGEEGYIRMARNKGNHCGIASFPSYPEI
Kind of experiment: Recombinant human cathepsin S (CatS) fluorogenic substrate inhibition assay. It counts as biochemical.
Conditions: not given
As for the experimental part: Recombinant human cathepsin S (CatS) was expressed in the baculovirus system and purified in one step with a thiopropyl-sepharose column. […] The assay is run in 150 mM sodium acetate pH 5.0 containing 1.5 mM DTT and 150 mM NaCl. […] Measurements are taken every min for 20 min. The rate is calculated from the slope of the increase in fluorescence and the percent inhibition is calculated from this.
As usually defined, the IC50 is the concentration needed to halve the response being measured. On to `CS(=O)(=O)N1CCc2c(c(-c3ccc(C(F)(F)F)c(CNC(=O)c4ccc(F)cc4)c3)nn2CC(O)CN2CCC(C(N)=O)CC2)C1` (stereo not shown) [Example 18, 1-[3-(3-[3-[(4-Fluoro-benzoylamino)-methyl]-4-trifluoromethyl-phenyl]-5-methanesulfonyl-4,5,6,7-tetrahydro-pyrazolo[4,3-c]pyridin-1-yl)-2-hydroxy-propyl]-piperidine-4-carboxylic acid amide], for which the IC50 was determined as 70 nM. The same measure, in the same setting: with `CS(=O)(=O)N1CCc2c(c(-c3ccc(Cl)c(CNC(=O)c4ccc(F)cc4)c3)nn2CC(O)CN2CCC2)C1` (stereo not shown) [Example 73, N-{5-[1-(3-Azetidin-1-yl-2-hydroxy-propyl)-5-methanesulfonyl-4,5,6,7-tetrahydro-1H-pyrazolo[4,3-c]pyridin-3-yl]-2-chloro-benzyl}-4-fluoro-benzamide] the figure was 200 nM; with `CS(=O)(=O)N1CCc2c(c(-c3ccc(C(F)(F)F)c(CNC(=O)c4cccc(C(=O)O)c4)c3)nn2CC(O)CN2CCCC2)C1` (stereo not shown) [Example 191, N-{5-[1-(2-Hydroxy-3-pyrrolidin-1-yl-propyl)-5-methanesulfonyl-4,5,6,7-tetrahydro-1H-pyrazolo[4,3-c]pyridin-3-yl]-2-trifluoromethyl-benzyl]-isophthalamic acid], 770 nM.

The same experiment, now with this note: average of results obtained; substrate Z-Valine-Valine-Arginine-AMC 10 μM, pH 5.0; read-out: CatS IC50.
With `CS(=O)(=O)N1CCc2c(c(-c3ccc(Cl)c(CNC(=O)c4ccc(F)cc4)c3)nn2CC(O)CN2CCCC(C(N)=O)C2)C1` (stereo not shown) [Example 81, 1-[3-(3-{4-Chloro-3-[(4-fluoro-benzoylamino)-methyl]-phenyl}-5-methanesulfonyl-4,5,6,7-tetrahydro-pyrazolo[4,3-c]pyridin-1-yl)-2-hydroxy-propyl]-piperidine-3-carboxylic acid amide], the IC50 stood at 170 nM. As to `O=C(NCc1cc(-c2nn(CC(O)CN3CCC4(CCNC4=O)CC3)c3c2CNCC3)ccc1C(F)(F)F)c1ccc(F)cc1` (stereo not shown) [Example 238, 4-Fluoro-N-(5-{1-[2-hydroxy-3-(1-oxo-2,8-diaza-spiro[4.5]dec-8-yl)-propyl]-4,5,6,7-tetrahydro-1H-pyrazolo[4,3-c]pyridin-3-yl}-2-trifluoromethyl-benzyl)-benzamide], the IC50 worked out at 940 nM.

For the compound `CC(C)CC(=O)NCc1cc(-c2nn(CC(O)CN3CCC(C(C)(C)C)CC3)c3c2CN(C(=O)CO)CC3)ccc1C(F)(F)F` (stereo not shown) [Example 298, N-{5-[1-[3-(4-tert-Butyl-piperidin-1-yl)-2-hydroxy-propyl]-5-(2-hydroxy-acetyl)-4,5,6,7-tetrahydro-1H-pyrazolo[4,3-c]pyridin-3-yl]-2-trifluoromethyl-benzyl}-3-methyl-butyramide], the concentration for half-maximal inhibition (IC50) was determined as 80 nM. As to `CC(C)=CC(=O)NCc1cc(-c2nn(CC(O)CN3CCC(NS(C)(=O)=O)CC3)c3c2CN(S(C)(=O)=O)CC3)ccc1C(F)(F)F` (stereo not shown) [Example 269, 3-Methyl-but-2-enoic acid 5-{1-[2-hydroxy-3-(4-methanesulfonylamino-piperidin-1-yl)-propyl]-5-methanesulfonyl-4,5,6,7-tetrahydro-1H-pyrazolo[4,3-c]pyridin-3-yl}-2-trifluoromethyl-benzylamide], the IC50 came out at 30 nM. For `CCOC(=O)NC1CCN(CC(O)Cn2nc(-c3ccc(C(F)(F)F)c(CNC(=O)CC(C)C)c3)c3c2CCN(S(C)(=O)=O)C3)CC1` (stereo not shown) [Example 155, {1-[2-Hydroxy-3-(5-methanesulfonyl-3-{3-[(3-methyl-butyrylamino)-methyl]-4-trifluoromethyl-phenyl}-4,5,6,7-tetrahydro-pyrazolo[4,3-c]pyridin-1-yl)-propyl]-piperidin-4-yl}-carbamic acid ethyl ester], the IC50 was found to be 50 nM.

Regarding `CS(=O)(=O)N1CCc2c(c(-c3ccc(C(F)(F)F)c(CNC(=O)c4ccc(F)cc4)c3)nn2CC(O)CN2CC[C@@H](CO)C2)C1` (stereo partly drawn) [Example 95, (R)-4-Fluoro-N-(5-{1-[2-hydroxy-3-(3-hydroxymethyl-pyrrolidin-1-yl)-propyl]-5-methanesulfonyl-4,5,6,7-tetrahydro-1H-pyrazolo[4,3-c]pyridin-3-yl}-2-trifluoromethyl-benzyl)-benzamide], the IC50 came to 230 nM.

Regarding `CN(C)c1ccccc1C(=O)NCc1cc(-c2nn(CC(O)CN3CCCC3)c3c2CN(S(C)(=O)=O)CC3)ccc1C(F)(F)F` (stereo not shown) [Example 239, 2-Dimethylamino-N-{5-[1-(2-hydroxy-3-pyrrolidin-1-yl-propyl)-5-methanesulfonyl-4,5,6,7-tetrahydro-1H-pyrazolo[4,3-c]pyridin-3-yl]-2-trifluoromethyl-benzyl}-benzamide], the IC50 worked out at 950 nM.

`CS(=O)(=O)N1CCc2c(c(-c3ccc(Cl)c(CNC(=O)c4ccccc4)c3)nn2CC(O)CN2CCCCC2)C1` (stereo not shown) [Example 231, N-{2-Chloro-5-[1-(2-hydroxy-3-piperidin-1-yl-propyl)-5-methanesulfonyl-4,5,6,7-tetrahydro-1H-pyrazolo[4,3-c]pyridin-3-yl]-benzyl}-benzamide]: the IC50 is 800 nM.

In the case of `CC(C)CC(=O)NCc1cc(-c2nn(CC(O)CN3CCCC3)c3c2CN(S(C)(=O)=O)CC3)ccc1C(F)(F)F` (stereo not shown) [Example 281, N-{5-[1-(2-Hydroxy-3-pyrrolidin-1-yl-propyl)-5-methanesulfonyl-4,5,6,7-tetrahydro-1H-pyrazolo[4,3-c]pyridin-3-yl]-2-trifluoromethyl-benzyl]-3-methyl-butyramide], the IC50 worked out at 370 nM.

For the compound `CS(=O)(=O)N1CCc2c(c(-c3ccc(C(F)(F)F)c(CNC(=O)c4ccc(F)cc4)c3)nn2CC(O)CN2CCNCC2)C1` (stereo not shown) [Example 236, 4-Fluoro-N-{5-[1-(2-hydroxy-3-piperazin-1-yl-propyl)-5-methanesulfonyl-4,5,6,7-tetrahydro-1H-pyrazolo[4,3-c]pyridin-3-yl]-2-trifluoromethyl-benzyl}-benzamide], the IC50 stood at 900 nM. On to `CS(=O)(=O)N1CCc2c(c(-c3ccc(C(F)(F)F)c(CNC(=O)c4ccc(O)cc4)c3)nn2CCCN2CCC3(CCNC3=O)CC2)C1` [Example 142, 4-Hydroxy-N-(5-{5-methanesulfonyl-1-[3-(1-oxo-2,8-diaza-spiro[4.5]dec-8-yl)-propyl]-4,5,6,7-tetrahydro-1H-pyrazolo[4,3-c]pyridin-3-yl}-2-trifluoromethyl-benzyl)-benzamide], for which the IC50 worked out at 90 nM.

Turning to `CC(C)CC(=O)NCc1cc(-c2nn(CC(O)CN3CCC(C)(C)CC3)c3c2CN(S(C)(=O)=O)CC3)ccc1C(F)(F)F` (stereo not shown) [Example 251, N-(5-{1-[3-(4,4-Dimethyl-piperidin-1-yl)-2-hydroxy-propyl]-5-methanesulfonyl-4,5,6,7-tetrahydro-1H-pyrazolo[4,3-c]pyridin-3-yl}-2-trifluoromethyl-benzyl)-3-methyl-butyramide], the IC50 was determined as 300 nM.

On to `CC(=O)N(C)C1CCN(CC(O)Cn2nc(-c3ccc(C(F)(F)F)c(CNC(=O)CC(C)C)c3)c3c2CCN(S(C)(=O)=O)C3)C1` (stereo not shown) [Example 279, N-[5-(1-{3-[3-(Acetyl-methyl-amino)-pyrrolidin-1-yl]-2-hydroxy-propyl}-5-methanesulfonyl-4,5,6,7-tetrahydro-1H-pyrazolo[4,3-c]pyridin-3-yl)-2-trifluoromethyl-benzyl]-3-methyl-butyramide], for which the IC50 came to 240 nM. The same measure, in the same setting: under `CS(=O)(=O)N1CCc2c(c(-c3ccc(C(F)(F)F)c(CNc4ncccn4)c3)nn2CC(O)CN2CCCC2)C1` (stereo not shown) [Example 65, 1-{5-Methanesulfonyl-3-[3-(pyrimidin-2-ylaminomethyl)-4-trifluoromethyl-phenyl]-4,5,6,7-tetrahydro-pyrazolo[4,3-c]pyridin-1-yl}-3-pyrrolidin-1-yl-propan-2-ol] stands 16600 nM. On to `CS(=O)(=O)N1CCc2c(c(-c3ccc(C(F)(F)F)c(CNC(=O)C4CCCCCC4)c3)nn2CCCN2CCC3(CCNC3=O)CC2)C1` [Example 158, Cycloheptanecarboxylic acid 5-{5-methanesulfonyl-1-[3-(1-oxo-2,8-diaza-spiro[4.5]dec-8-yl)-propyl]-4,5,6,7-tetrahydro-1H-pyrazolo[4,3-c]pyridin-3-yl}-2-trifluoromethyl-benzylamide], for which the IC50 came to 280 nM. `Cc1nc2ccccc2c(=O)n1Cc1cc(-c2nn(CCCN3CCC4(CCNC4=O)CC3)c3c2CN(S(C)(=O)=O)CC3)ccc1C(F)(F)F` [Example 174, 3-(5-{5-Methanesulfonyl-1-[3-(1-oxo-2,8-diaza-spiro[4.5]dec-8-yl)-propyl]-4,5,6,7-tetrahydro-1H-pyrazolo[4,3-c]pyridin-3-yl}-2-trifluoromethyl-benzyl)-2-methyl-3H-quinazolin-4-one]: the IC50 was determined as 13500 nM.

`CS(=O)(=O)N1CCc2c(c(-c3ccc(C(F)(F)F)c(CNC(=O)C4CCCCCC4)c3)nn2CC(O)CN2CCC3(CCNC3=O)CC2)C1` (stereo not shown) [Example 167, Cycloheptanecarboxylic acid 5-{1-[2-hydroxy-3-(1-oxo-2,8-diaza-spiro[4.5]dec-8-yl)-propyl]-5-methanesulfonyl-4,5,6,7-tetrahydro-1H-pyrazolo[4,3-c]pyridin-3-yl}-2-trifluoromethyl-benzylamide]: the IC50 was found to be 490 nM. As to `CS(=O)(=O)N1CCc2c(c(-c3ccc(C(F)(F)F)c(CNC(=O)c4cccc(O)c4)c3)nn2CC(O)CN2CCCC2)C1` (stereo not shown) [Example 58, 3-Hydroxy-N-{5-[1-(2-hydroxy-3-pyrrolidin-1-yl-propyl)-5-methanesulfonyl-4,5,6,7-tetrahydro-1H-pyrazolo[4,3-c]pyridin-3-yl]-2-trifluoromethyl-benzyl}-benzamide], the IC50 was 420 nM. In the case of `CS(=O)(=O)N1CCc2c(c(-c3ccc(C(F)(F)F)c(CNC(=O)c4ccc(F)cc4)c3)nn2CC(O)CN2CCC(O)C2)C1` (stereo not shown) [Example 27, 4-Fluoro-N-(5-{1-[2-hydroxy-3-(3-hydroxy-pyrrolidin-1-yl)-propyl]-5-methanesulfonyl-4,5,6,7-tetrahydro-1H-pyrazolo[4,3-c]pyridin-3-yl}-2-trifluoromethyl-benzyl)-benzamide], the IC50 was 230 nM.
